A word on the IC50: it is the concentration that inhibits the measured activity by half. The term inhibition denotes the relative decrease from the control value, in per cent.

Active and inactive are the calls of the source. The rule behind the calls is not given here.

Holding throughout (experiment): CXCR6 receptor antagonists, dose response, cell-based, beta-arrestin, DiscoveRx, APJ panel, uHTS hits (AID 624129)
Assay [1] has as its target Apelin receptor (Homo sapiens) (UniProt P35414). The conditions noted are these: CXCR6 beta-arrestin (DiscoveRx) antagonist cell assay, APJ.
The target of assay [2] is Beta-galactosidase (Escherichia coli) (UniProt Q8VNN2). Particulars: CXCR6 beta-arrestin (DiscoveRx) antagonist cell assay, b-galactosidase.
The target in assay [3] is C-C chemokine receptor type 6 (Homo sapiens) (UniProt P51684). The conditions noted are these: CXCR6 beta-arrestin (DiscoveRx) antagonist cell assay.
Assay [4] concerns the target C-X-C chemokine receptor type 6 (Homo sapiens) (UniProt O00574). The conditions noted are these: CXCR6 beta-arrestin (DiscoveRx) antagonist cell assay; for inhibition: CXCR6, run 1, dose range 2, at 80 µM (top of the series).
[5] abbreviates: dose range 1, mean IC50 across replicates.
[6] abbreviates: CCR6, dose range 1, mean IC50 across replicates.
The mark [7] stands for this setting: CXCR6, dose range 1, mean IC50 across replicates.

Beta-galactosidase (Escherichia coli), sequence (Q8VNN2 whole entry, looked up): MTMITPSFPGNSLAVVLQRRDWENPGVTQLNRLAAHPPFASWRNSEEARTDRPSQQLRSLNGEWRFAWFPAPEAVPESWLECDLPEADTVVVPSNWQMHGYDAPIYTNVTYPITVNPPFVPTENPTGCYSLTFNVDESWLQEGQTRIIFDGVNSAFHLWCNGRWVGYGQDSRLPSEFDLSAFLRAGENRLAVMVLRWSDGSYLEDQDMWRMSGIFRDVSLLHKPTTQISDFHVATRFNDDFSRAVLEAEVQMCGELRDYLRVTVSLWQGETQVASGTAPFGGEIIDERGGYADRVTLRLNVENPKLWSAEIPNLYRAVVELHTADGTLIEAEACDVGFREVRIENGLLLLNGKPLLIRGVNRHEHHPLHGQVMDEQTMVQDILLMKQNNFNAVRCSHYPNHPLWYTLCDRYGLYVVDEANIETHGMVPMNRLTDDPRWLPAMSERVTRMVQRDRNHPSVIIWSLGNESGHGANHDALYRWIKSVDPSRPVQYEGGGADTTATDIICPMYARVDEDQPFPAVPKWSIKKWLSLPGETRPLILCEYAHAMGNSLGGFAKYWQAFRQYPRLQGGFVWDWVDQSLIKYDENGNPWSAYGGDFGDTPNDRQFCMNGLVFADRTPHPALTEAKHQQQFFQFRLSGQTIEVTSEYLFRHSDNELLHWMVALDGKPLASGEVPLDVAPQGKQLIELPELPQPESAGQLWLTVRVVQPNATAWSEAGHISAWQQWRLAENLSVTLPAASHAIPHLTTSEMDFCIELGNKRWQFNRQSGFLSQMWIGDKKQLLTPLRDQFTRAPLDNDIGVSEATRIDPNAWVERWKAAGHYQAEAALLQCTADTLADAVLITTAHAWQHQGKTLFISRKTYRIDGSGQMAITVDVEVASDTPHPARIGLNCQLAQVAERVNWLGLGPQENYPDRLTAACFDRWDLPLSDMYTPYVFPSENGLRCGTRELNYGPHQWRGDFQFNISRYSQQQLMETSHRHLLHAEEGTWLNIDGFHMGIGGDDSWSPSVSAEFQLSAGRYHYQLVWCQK
C-X-C chemokine receptor type 6 (Homo sapiens), sequence (O00574 whole entry, looked up): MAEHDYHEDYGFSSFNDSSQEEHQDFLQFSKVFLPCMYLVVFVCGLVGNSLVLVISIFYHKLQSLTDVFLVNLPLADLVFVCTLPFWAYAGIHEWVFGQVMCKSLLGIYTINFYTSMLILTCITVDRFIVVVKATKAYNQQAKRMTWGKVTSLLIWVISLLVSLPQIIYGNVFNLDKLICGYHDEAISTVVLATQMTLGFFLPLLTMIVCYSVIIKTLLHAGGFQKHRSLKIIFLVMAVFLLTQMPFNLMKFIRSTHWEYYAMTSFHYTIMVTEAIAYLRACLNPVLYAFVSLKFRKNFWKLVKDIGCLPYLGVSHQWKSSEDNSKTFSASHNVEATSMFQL

In the case of `COc1ccc(C(=O)/C(=C\c2ccco2)N2C=CC=CC2=C(C#N)C#N)cc1`, the IC50 in assay [1] (dose range 1) was 6.33 µM; in assay [1] (setting [5]), 5.69 µM; in assay [1] (run 2, dose range 1) it was 5.06 µM; in assay [1] (run 3, dose range 1), 5.67 µM; in assay [2] (dose range 1), > 80 µM (inactive); in assay [2] (setting [5]), greater than 80 µM. Further, the IC50 in assay [3] (CCR6, dose range 1) is 3.27 µM; in assay [3] (setting [6]), 3.72 µM; in assay [3] (CCR6, run 2, dose range 1), 4.17 µM; in assay [4] (CXCR6, dose range 1) it was 4.73 µM; in assay [4] (setting [7]), 4.87 µM; in assay [4] (CXCR6, run 1, dose range 2), 4.61 µM. The IC50 in assay [4] (CXCR6, run 2, dose range 1) is 5.18 µM; in assay [4] (CXCR6, run 2, dose range 2), 4.96 µM.

As for `O=[N+]([O-])/C=C/c1c(Cl)cccc1Cl`, the IC50 in assay [1] (setting [5]) was 14.3 µM; in assay [1] (run 2, dose range 1), greater than 80 µM; in assay [1] (run 3, dose range 1), 14.3 µM; in assay [2] (dose range 1), > 80 µM (inactive); in assay [2] (setting [5]) it was greater than 80 µM; in assay [3] (setting [6]) it was greater than 80 µM. For the same molecule, the IC50 in assay [3] (CCR6, run 2, dose range 1) is greater than 80 µM; in assay [4] (CXCR6, dose range 1) it was > 80 µM (inactive); in assay [4] (setting [7]), greater than 80 µM; in assay [4] (CXCR6, run 2, dose range 1), greater than 80 µM. For the same molecule, in assay [4], the inhibition stood at 54%.

On to `CCOc1cc(Br)c(Br)c(C=Nc2ccc(NC(C)=O)cc2)c1O`, for which the IC50 in assay [1] (dose range 1) is 45.8 µM; in assay [1] (setting [5]), 45.8 µM; in assay [1] (run 2, dose range 1) it was greater than 80 µM; in assay [1] (run 3, dose range 1), greater than 80 µM; in assay [2] (dose range 1) it was > 80 µM (inactive); in assay [2] (setting [5]) it was greater than 80 µM. In addition, the IC50 is 40.4 µM in assay [3] (setting [6]); 40.4 µM in assay [3] (CCR6, run 2, dose range 1); 19.8 µM in assay [4] (setting [7]); 5.38 µM in assay [4] (CXCR6, run 1, dose range 2); greater than 80 µM in assay [4] (CXCR6, run 2, dose range 1); 14.1 µM in assay [4] (CXCR6, run 2, dose range 2). Also, the IC50 entry in assay [4] (CXCR6, dose range 1) is “inactive”.

In the case of `COc1ccc(C2CC(c3c(O)n(CCc4ccccc4)c(=O)[nH]c3=O)=NN2)cc1OC` (centres undefined), the IC50 in assay [1] (dose range 1) is 10.5 µM; in assay [1] (setting [5]) it was 14.3 µM; in assay [1] (run 2, dose range 1) it was 22.1 µM; in assay [1] (run 3, dose range 1) it was 10.4 µM; in assay [2] (setting [5]) it was 52 µM; in assay [3] (CCR6, dose range 1), 14.8 µM. Besides, the IC50 in assay [3] (setting [6]) is 18 µM; in assay [3] (CCR6, run 2, dose range 1) it was 21.2 µM; in assay [4] (setting [7]), 14.2 µM; in assay [4] (CXCR6, run 1, dose range 2) it was 6.37 µM; in assay [4] (CXCR6, run 2, dose range 1) it was 22.4 µM; in assay [4] (CXCR6, run 2, dose range 2) it was 8.63 µM. Moreover, the IC50 entry in assay [2] (dose range 1) is “inactive”; in assay [4] (CXCR6, dose range 1) it was “inactive”.

`COc1cc2c(cc1OC)C1(CCCC1)CNC2c1cccc([N+](=O)[O-])c1` (centres undefined): the IC50 is 19.9 µM in assay [1] (dose range 1); 21.9 µM in assay [1] (setting [5]); 21 µM in assay [1] (run 2, dose range 1); 24.6 µM in assay [1] (run 3, dose range 1); > 80 µM (inactive) in assay [2] (dose range 1); greater than 80 µM in assay [2] (setting [5]). The IC50 in assay [3] (CCR6, dose range 1) is 11.9 µM; in assay [3] (setting [6]), 12.4 µM; in assay [3] (CCR6, run 2, dose range 1), 13 µM; in assay [4] (setting [7]) it was 14.1 µM; in assay [4] (CXCR6, run 2, dose range 1), 12 µM. Moreover, the IC50 entry in assay [4] (CXCR6, dose range 1) was “inactive”. The inhibition in assay [4] was 126%.

Take `CCOc1ccc2nc(NC(=O)c3ccccn3)sc2c1`: the IC50 is 11.7 µM in assay [1] (dose range 1); 19.5 µM in assay [1] (setting [5]); 35 µM in assay [1] (run 2, dose range 1); 11.8 µM in assay [1] (run 3, dose range 1); > 80 µM (inactive) in assay [2] (dose range 1); greater than 80 µM in assay [2] (setting [5]). The IC50 in assay [3] (CCR6, dose range 1) is 7.32 µM; in assay [3] (setting [6]), 8.78 µM; in assay [3] (CCR6, run 2, dose range 1) it was 10.2 µM; in assay [4] (setting [7]), 13.5 µM; in assay [4] (CXCR6, run 2, dose range 1), 12.7 µM. In assay [4] (CXCR6, dose range 1), the IC50 result was “inactive”. Further, the inhibition in assay [4] was 92.1%.

As for `CN(C(=O)CSC1=Nc2ccccc2C2=NC(c3ccccc3)C(=O)N12)C1CCCCC1` (centres undefined), the concentration for half-maximal inhibition (IC50) in assay [1] (setting [5]) was greater than 80 µM; in assay [1] (run 2, dose range 1), greater than 80 µM; in assay [1] (run 3, dose range 1) it was greater than 80 µM; in assay [2] (dose range 1), > 80 µM (inactive); in assay [2] (setting [5]), greater than 80 µM; in assay [3] (setting [6]), greater than 80 µM. The IC50 was greater than 80 µM in assay [3] (CCR6, run 2, dose range 1); > 80 µM (inactive) in assay [4] (CXCR6, dose range 1); greater than 80 µM in assay [4] (setting [7]); greater than 80 µM in assay [4] (CXCR6, run 2, dose range 1). Also, the inhibition in assay [4] is -15.6%.

For the origin of these results see PubChem BioAssay AID624129 (Sanford-Burnham Center for Chemical Genomics, 2012).
